From patent publication US20130158063A1, “Compounds, Compositions and Methods Related to PPAR Antagonists” (GEORGETOWN UNIVERSITY, priority 2010, published 2013)
pEC50: −log10 of the molar value.

Key:
[1] = target: T1, PPARα (Homo sapiens, UniProt Q07869); assay: Fluorescent Polarization (FP) binding assay with corepressor peptides, PPARα; conditions: Nb = no binding
T1 construct: purchased Cayman Chemicals
T1 sequence (Q07869 239-466 limits assumed): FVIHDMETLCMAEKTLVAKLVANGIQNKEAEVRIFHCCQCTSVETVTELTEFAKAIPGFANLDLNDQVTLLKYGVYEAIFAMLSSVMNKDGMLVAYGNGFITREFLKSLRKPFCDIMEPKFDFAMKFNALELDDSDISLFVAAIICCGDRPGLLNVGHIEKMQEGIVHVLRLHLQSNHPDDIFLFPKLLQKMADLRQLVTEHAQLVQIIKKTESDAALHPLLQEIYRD
Experimental: (§1) For PPARγ screening, a fluorescent ligand supplied by Cayman Chemicals was also used. All compounds were dissolved in DMSO as 10 mM stock solutions and the final DMSO content in the assay was <1%. A TECAN Ultra 485 multi-functional microplate reader and GraphPad prism 4 software were used for measurements and analysis, respectively.
(§2) PPAR antagonists are expected to enhance the affinities of the corepressor peptides, and therefore, FP should increase as the compound concentration increases. Agonists would be expected to weaken the affinity of the same co-repressor peptide. Although this effect occurs for PPARγ, the dissociation of corepressor peptides varies for PPARα and PPARδ due to altered presentations of the overlapping coactivator/corepressor binding surfaces (Stanley T. B. et al. Biochemistry 42:9278-87, 2003). Compounds were screened initially against PPARγ and PPARδ at 1 and 100 μM. If binding was observed, titration experiments from 10 nM to 100 μM were carried out in triplicate with all three PPARs. […] For screening, either enhancement or weakening of FP was considered active.
(§3) Virtual screening for PPARγ was conducted against 56,000 compounds from the Maybridge library that targeted the ligand binding domain (LBD) of PPARγ, and 10 conformations of each compound were docked to the LBD using Autdock4 software (Scripps Institute). Sixty of the top ranked compounds were ordered from Maybridge, and 58 were available for evaluation. Fluorescent Polarization (FP) assays were established with the tagged co-repressor peptides NCoR1 and SMRT, the recombinant PPARα and PPARγ ligand-binding domains and full-length PPARδ. […] Sd-107 and its analogs are disclosed herein. The chemical structure is shown below.

[2] = target: T2, PPARγ (Homo sapiens, UniProt P37231); assay: Fluorescent Polarization (FP) binding assay with corepressor peptides, PPARγ; conditions: for pEC50 / Binding assay EC50, γ: FP assay, Nb = no binding; for pEC50: read-out: Binding assay EC50, γ; for Competition in FPA of PPARγ with fluorescent labeled NCoR peptide probe: FIG. 17, YL-1-80 analogs
T2 construct: purchased Cayman Chemicals
T2 sequence (P37231 238-503 limits assumed): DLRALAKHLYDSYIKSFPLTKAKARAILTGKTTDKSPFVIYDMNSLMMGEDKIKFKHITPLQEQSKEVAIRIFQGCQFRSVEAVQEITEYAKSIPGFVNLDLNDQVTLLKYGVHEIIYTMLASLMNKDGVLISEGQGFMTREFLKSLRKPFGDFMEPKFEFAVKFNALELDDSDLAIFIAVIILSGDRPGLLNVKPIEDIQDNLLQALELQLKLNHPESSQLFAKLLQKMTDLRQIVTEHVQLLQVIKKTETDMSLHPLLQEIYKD
Experimental: as §1, §2, §3

[3] = target: T3, PPARδ (Homo sapiens, UniProt Q03181); assay: Fluorescent Polarization (FP) binding assay with corepressor peptides, PPARδ; conditions: Nb = no binding
T3 construct: purchased Cayman Chemicals
T3 sequence (Q03181 1-441): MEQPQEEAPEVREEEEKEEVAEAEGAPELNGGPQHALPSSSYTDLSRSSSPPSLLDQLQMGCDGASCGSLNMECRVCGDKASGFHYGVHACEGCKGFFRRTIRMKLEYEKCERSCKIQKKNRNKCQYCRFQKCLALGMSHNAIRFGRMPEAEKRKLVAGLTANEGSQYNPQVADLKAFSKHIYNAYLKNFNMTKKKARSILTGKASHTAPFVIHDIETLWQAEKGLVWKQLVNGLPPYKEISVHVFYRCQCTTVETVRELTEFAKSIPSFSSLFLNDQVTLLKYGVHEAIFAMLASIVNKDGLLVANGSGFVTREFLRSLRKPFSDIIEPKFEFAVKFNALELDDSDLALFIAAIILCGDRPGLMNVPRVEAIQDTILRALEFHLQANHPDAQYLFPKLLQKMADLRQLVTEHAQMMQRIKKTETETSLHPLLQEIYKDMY
Experimental: as §1, §2, §3

[4] = system: PPARα; assay: PPAR reporter assay in 293T cells, PPARα (agonist WY14643); type: cell-based; conditions: 1 μM agonist WY14643
[5] = target: T4, PPARγ (Mus musculus, UniProt P37238); assay: PPAR reporter assay in 293T cells, PPARγ (agonist GW7845); type: cell-based; conditions: for inhibition at 1 µM / inhibition at 10 µM / inhibition at 25 µM / inhibition at 2.5 µM: HEK-293T, 1 μM agonist GW7845, 293T cells, read-out: Reporter assay (% inhibition), γ; for inhibition at 1 µM: 1 μM compound; for inhibition at 10 µM: 10 μM compound; for inhibition at 25 µM: 25 μM compound; for inhibition at 2.5 µM: 2.5 μM compound
T4 construct: expressed in transfected cells; host or cells: 293T cells
T4 sequence (P37238 1-505): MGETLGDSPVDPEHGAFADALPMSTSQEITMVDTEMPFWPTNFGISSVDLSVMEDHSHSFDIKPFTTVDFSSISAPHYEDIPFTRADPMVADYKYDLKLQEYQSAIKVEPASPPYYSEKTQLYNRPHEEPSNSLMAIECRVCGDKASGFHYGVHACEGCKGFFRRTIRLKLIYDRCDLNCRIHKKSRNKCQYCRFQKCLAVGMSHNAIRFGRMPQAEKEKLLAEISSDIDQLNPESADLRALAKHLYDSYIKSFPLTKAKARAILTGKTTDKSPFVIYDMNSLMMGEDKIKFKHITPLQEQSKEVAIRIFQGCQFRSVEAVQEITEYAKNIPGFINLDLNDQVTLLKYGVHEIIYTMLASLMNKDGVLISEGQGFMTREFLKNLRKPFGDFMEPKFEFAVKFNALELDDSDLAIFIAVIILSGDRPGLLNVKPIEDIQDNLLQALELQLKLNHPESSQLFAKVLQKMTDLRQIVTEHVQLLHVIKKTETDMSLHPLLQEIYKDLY

[6] = system: PPARδ; assay: PPAR reporter assay in 293T cells, PPARδ (agonist GW501516); type: cell-based; conditions: 1 μM agonist GW501516
[7] = system: PPARα, PPARγ, PPARδ; assay: PPAR reporter assays, isotype profile over the three PPARs; conditions: for PPAR inhibitor type (Table 1): from reporter data

Row | Binding assay EC50, α [1] | pEC50 [2] | Binding assay EC50, δ [3] | inhibition at 1 µM [5] | inhibition at 10 µM [5] | inhibition at 25 µM [5] | SMILES | Reporter assay (% inhibition), α ([4]; 1 μM compound) | Reporter assay (% inhibition), α ([4]; 10 μM compound) | Reporter assay (% inhibition), α ([4]; 25 μM compound) | Reporter assay (% inhibition), δ ([6]; 1 μM compound) | Reporter assay (% inhibition), δ ([6]; 10 μM compound) | Reporter assay (% inhibition), δ ([6]; 25 μM compound) | PPAR inhibitor type (Table 1) [7] | also measured
1 | nb | 5.85 | δ nb | 0% | 23% | 67% | CC(C)(C)c1ccc(S(=O)(=O)N(NC(=O)c2ccc(Cl)cc2)C(=O)c2ccc(Cl)cc2)cc1 [YL-1-68-2] | 16% | 23% | 57% | 0% | 18% | 46% | Pan inhibitor | 
2 | α nb γ nb |  | δ nb | 0% | 50% | 75% | CC(C)(C)c1ccc(S(=O)(=O)N(C(=O)c2ccc(Cl)cc2)N(C(=O)c2ccc(Cl)cc2)C(=O)c2ccc(Cl)cc2)cc1 [YL-1-68-1] | 0% | 0% | 17% | 0% | 0% | 47% | PPARγ/δ inhibitor | Binding assay EC50, γ [2]: α nb γ nb; inhibition at 2.5 µM [5]: 16%; Reporter assay (% inhibition), δ ([6]; 2.5 μM compound): 0%
3 | nb | 4.39 | δ nb | 0% | 50% | 75% | COc1ccc(S(=O)(=O)N(C(=O)c2ccc(Cl)cc2)N(C(=O)c2ccc(Cl)cc2)C(=O)c2ccc(Cl)cc2)cc1 [YL-1-38-1] | 0% | 15% | 40% | 0% | 0% | 47% | Pan inhibitor | Effect on FP of corepressor peptide, PPARγ ([2]; FIG. 3): weakened the affinity of the peptide to PPARγ; Selectivity of binding in FP assay ([2]; titration with all three PPARs): selective binding to PPARγ; Reporter assay (% inhibition), α ([4]; 2.5 μM compound): 0%; inhibition at 2.5 µM [5]: 16%; Reporter assay (% inhibition), δ ([6]; 2.5 μM compound): 0%

Continued, compound first:

Row | SMILES | Binding assay EC50, α [1] | pEC50 [2] | Binding assay EC50, δ [3] | inhibition at 1 µM [5] | inhibition at 10 µM [5] | inhibition at 25 µM [5] | Reporter assay (% inhibition), α ([4]; 1 μM compound) | Reporter assay (% inhibition), α ([4]; 10 μM compound) | Reporter assay (% inhibition), α ([4]; 25 μM compound) | Reporter assay (% inhibition), δ ([6]; 1 μM compound) | Reporter assay (% inhibition), δ ([6]; 10 μM compound) | Reporter assay (% inhibition), δ ([6]; 25 μM compound) | PPAR inhibitor type (Table 1) [7] | also measured
4 | CC(=O)Oc1ccc(C(=O)NN(C(=O)c2ccc(OC(C)=O)cc2)S(=O)(=O)c2ccc(C(C)(C)C)cc2)cc1 [YL-1-87] | nb | 6.39 | δ nb | 19% | 28% | 79% | 0% | 0% | 52% | δ 18% | 23% | 60% | Pan inhibitor | 
5 | CC(C)(C)c1ccc(S(=O)(=O)N(NC(=O)c2ccc(O)cc2)C(=O)c2ccc(O)cc2)cc1 [YL-1-88] | nb | 4.65 | δ nb | 0% | 0% | 10% | 0% | 0% | 0% | 0% | 14% | 40% | PPARδ inhibitor | 
6 | CC(C)(C)c1ccc(C(=O)N(NC(=O)c2ccc(Cl)cc2)S(=O)(=O)c2ccc(C(C)(C)C)cc2)cc1 [YL-1-80] | nb | 5.04 | δ nb | 18% | 58% | 79% | 0% | 24% | 53% | δ 12% | 31% | 64% | Pan inhibitor | Competition in FPA of PPARγ with fluorescent labeled NCoR peptide probe [2]: best competition
7 | CC(C)(C)c1ccc(S(=O)(=O)N(NC(=O)c2ccc(Cl)nc2)C(=O)c2ccc(Cl)nc2)cc1 [YL-1-83] |  | 6.96 | δ nb | 0% | 0% | 37% | 0% | 0% | 0% | 0% | 0% | 0% | PPARγ inhibitor | pEC50 ([1]; read-out: Binding assay EC50, α): 5.89; Competition in FPA of PPARγ with fluorescent labeled NCoR peptide probe [2]: best competition; PPARγ antagonism ([5]; binding and reporter screening): weak PPARγ antagonist; PPAR isotype selectivity in reporter assays ([7]; inhibition of activation by 1 μM agonist): more selective for PPARγ
8 | O=C(NN(C(=O)c1ccc(Cl)cc1)S(=O)(=O)c1ccc(C(F)(F)F)cc1)c1ccc(Cl)cc1 [YL-1-81] | nb | 4.82 | δ nb |  |  | 32% |  |  | 8% |  |  | 46% | PPARγ/δ inhibitor | 
9 | CC(C)(C)c1ccc(C(=O)N(N)S(=O)(=O)c2ccc(C(C)(C)C)cc2)cc1 [YL-1-69] | α nb γ nb |  | δ nb | 0% | 25% | 50% | 0% | 15% | 20% | 0% | 10% | 20% | Pan inhibitor | Binding assay EC50, γ [2]: α nb γ nb
